Results on 26 compounds are retold here after patent publication US20230365592A1 (Agios Pharmaceuticals, Inc., priority 2022, published 2023).

The target of the assay is T1, human PAH with the R408W mutation (Homo sapiens, UniProt P00439, R408W).
T1 construct: expressed in transfected cells
T1 sequence (P00439 1-452 R408W): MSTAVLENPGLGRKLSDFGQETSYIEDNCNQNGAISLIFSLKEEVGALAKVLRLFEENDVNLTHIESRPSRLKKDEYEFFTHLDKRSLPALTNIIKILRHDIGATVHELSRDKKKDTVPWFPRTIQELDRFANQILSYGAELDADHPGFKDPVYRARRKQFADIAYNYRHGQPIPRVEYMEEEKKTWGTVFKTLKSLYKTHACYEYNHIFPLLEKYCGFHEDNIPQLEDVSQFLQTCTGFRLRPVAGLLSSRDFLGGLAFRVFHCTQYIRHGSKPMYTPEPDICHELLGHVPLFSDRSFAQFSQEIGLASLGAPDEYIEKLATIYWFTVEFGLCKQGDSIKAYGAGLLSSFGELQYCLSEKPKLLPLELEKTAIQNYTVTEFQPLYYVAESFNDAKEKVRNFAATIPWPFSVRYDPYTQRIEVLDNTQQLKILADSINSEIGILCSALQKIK
Kind of assay: Cell Based Phenylalanine Flux Assay.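 Also: after compound treatment, cells received sepiapterin plus isotope-labelled Phenylalanine for 4 hours, then labelled Tyrosine in the medium was quantified, 10-point 2-fold dilution series run in duplicate.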 Conditions: A375 cells expressing human PAH R408W; 24 hrs compound incubation; 13C-Tyrosine by LC-MS; average where tested multiple times; read-out: AC50.
For `Clc1cccn2nc([C@@H]3c4nc[nH]c4CCN3c3nnc(C4CCC4)o3)cc12` [Example 1831, (S)-2-(4-(4-chloropyrazolo[1,5-a]pyridin-2-yl)-6,7-dihydro-1H-imidazo[4,5-c]pyridin-5(4H)-yl)-5-cyclobutyl-1,3,4-oxadiazole], the AC50 lay within 500 to 1000 nM.
For `CC(C)(C)c1nnc(N2CCc3[nH]cnc3[C@H]2c2cc3c(Cl)cccn3n2)o1` [Example 1833, (S)-2-(tert-butyl)-5-(4-(4-chloropyrazolo[1,5-a]pyridin-2-yl)-6,7-dihydro-1H-imidazo[4,5-c]pyridin-5(4H)-yl)-1,3,4-oxadiazole] the value was 500 to 1000 nM; for `Nc1cnc(N2CCc3[nH]cnc3[C@H]2c2cc3c(C(F)(F)F)cccn3n2)nc1` [Example 1835, (S)-2-(4-(4-(trifluoromethyl)pyrazolo[1,5-a]pyridin-2-yl)-1,4,6,7-tetrahydro-5H-imidazo[4,5-c]pyridin-5-yl)pyrimidin-5-amine], 500 to 1000 nM.
On to `Nc1cnc(N2CCc3[nH]cnc3[C@H]2c2cc3c(F)cccn3n2)nc1` [Example 1837, (S)-2-(4-(4-fluoropyrazolo[1,5-a]pyridin-2-yl)-1,4,6,7-tetrahydro-5H-imidazo[4,5-c]pyridin-5-yl)pyrimidin-5-amine], for which the AC50 lay within 500 to 1000 nM.
As for `O=C(c1nnc(C2CC2)o1)N1CCc2[nH]cnc2[C@H]1c1cc2c(C3CC3)cccn2n1` [Example 1838, (S)-(5-cyclopropyl-1,3,4-oxadiazol-2-yl)(4-(4-cyclopropylpyrazolo[1,5-a]pyridin-2-yl)-1,4,6,7-tetrahydro-5H-imidazo[4,5-c]pyridin-5-yl)methanone], the AC50 was less than 500 nM.
With `O=C(c1nnc(C2CC2)o1)N1CCc2[nH]cnc2[C@@H]1c1cc2c(C3CC3)cccn2n1` [Example 1839, (R)-(5-cyclopropyl-1,3,4-oxadiazol-2-yl)(4-(4-cyclopropylpyrazolo[1,5-a]pyridin-2-yl)-1,4,6,7-tetrahydro-5H-imidazo[4,5-c]pyridin-5-yl)methanone], the AC50 is greater than 5000 nM.
For the compound `CC(C)(C)c1nnc(C(=O)N2CCc3[nH]cnc3[C@H]2c2cc3c(C4CC4)cccn3n2)o1` [Example 1840, (S)-(5-(tert-butyl)-1,3,4-oxadiazol-2-yl)(4-(4-cyclopropylpyrazolo[1,5-a]pyridin-2-yl)-1,4,6,7-tetrahydro-5H-imidazo[4,5-c]pyridin-5-yl)methanone], the AC50 was less than 500 nM.
`CC(C)(C)c1nnc(C(=O)N2CCc3[nH]cnc3[C@@H]2c2cc3c(C4CC4)cccn3n2)o1` [Example 1841, (R)-(5-(tert-butyl)-1,3,4-oxadiazol-2-yl)(4-(4-cyclopropylpyrazolo[1,5-a]pyridin-2-yl)-1,4,6,7-tetrahydro-5H-imidazo[4,5-c]pyridin-5-yl)methanone]: the AC50 is greater than 5000 nM.
Turning to `Cc1cccn2nc([C@H]3c4nc[nH]c4CCN3c3nnc(-c4c(F)cccc4F)o3)cc12` [Example 1844, (R)-2-(2,6-difluorophenyl)-5-(4-(4-methylpyrazolo[1,5-a]pyridin-2-yl)-6,7-dihydro-1H-imidazo[4,5-c]pyridin-5(4H)-yl)-1,3,4-oxadiazole], the AC50 was greater than 5000 nM.
For `Cc1cccn2nc([C@@H]3c4nc[nH]c4CCN3c3nnc(-c4c(F)cccc4F)o3)cc12` [Example 1845, (S)-2-(2,6-difluorophenyl)-5-(4-(4-methylpyrazolo[1,5-a]pyridin-2-yl)-6,7-dihydro-1H-imidazo[4,5-c]pyridin-5(4H)-yl)-1,3,4-oxadiazole], the AC50 is less than 500 nM.
Regarding `Fc1cccc(F)c1-c1nnc(N2CCc3[nH]cnc3[C@H]2c2cc3c(C(F)(F)F)cccn3n2)o1` [Example 1847, (S)-2-(2,6-difluorophenyl)-5-(4-(4-(trifluoromethyl)pyrazolo[1,5-a]pyridin-2-yl)-6,7-dihydro-1H-imidazo[4,5-c]pyridin-5(4H)-yl)-1,3,4-oxadiazole], the AC50 was less than 500 nM.
`FC(F)(F)c1nnc(N2CCc3[nH]cnc3[C@@H]2c2cc3c(Cl)cccn3n2)o1` [Example 1848, (R)-2-(4-(4-chloropyrazolo[1,5-a]pyridin-2-yl)-6,7-dihydro-1H-imidazo[4,5-c]pyridin-5(4H)-yl)-5-(trifluoromethyl)-1,3,4-oxadiazole]: the AC50 was greater than 5000 nM.
For the compound `FC(F)(F)c1nnc(N2CCc3[nH]cnc3[C@H]2c2cc3c(Cl)cccn3n2)o1` [Example 1849, (S)-2-(4-(4-chloropyrazolo[1,5-a]pyridin-2-yl)-6,7-dihydro-1H-imidazo[4,5-c]pyridin-5(4H)-yl)-5-(trifluoromethyl)-1,3,4-oxadiazole], the AC50 is less than 500 nM.
On to `Cc1cccc2cc([C@@H]3c4nc[nH]c4CCN3c3nnc(C(F)(F)F)o3)nn12` [Example 1850, (S)-2-(4-(7-methylpyrazolo[1,5-a]pyridin-2-yl)-6,7-dihydro-1H-imidazo[4,5-c]pyridin-5(4H)-yl)-5-(trifluoromethyl)-1,3,4-oxadiazole], for which the AC50 fell in the range of 500 to 1000 nM.
With `Cc1cccc2cc([C@H]3c4nc[nH]c4CCN3c3nnc(C(F)(F)F)o3)nn12` [Example 1851, (R)-2-(4-(7-methylpyrazolo[1,5-a]pyridin-2-yl)-6,7-dihydro-1H-imidazo[4,5-c]pyridin-5(4H)-yl)-5-(trifluoromethyl)-1,3,4-oxadiazole], the AC50 is 1000 to 5000 nM.
On to `Nc1cnc(N2CCc3[nH]cnc3[C@H]2c2cc3c(C(F)F)cccn3n2)nc1` [Example 1852, (S)-2-(4-(4-(difluoromethyl)pyrazolo[1,5-a]pyridin-2-yl)-1,4,6,7-tetrahydro-5H-imidazo[4,5-c]pyridin-5-yl)pyrimidin-5-amine], for which the AC50 lay in the range of 500 to 1000 nM.
`Nc1cnc(N2CCc3[nH]cnc3[C@@H]2c2cc3c(C(F)F)cccn3n2)nc1` [Example 1853, (R)-2-(4-(4-(difluoromethyl)pyrazolo[1,5-a]pyridin-2-yl)-1,4,6,7-tetrahydro-5H-imidazo[4,5-c]pyridin-5-yl)pyrimidin-5-amine]: the AC50 is 1000 to 5000 nM.
For `O=C(c1nnc(-c2ncccc2F)o1)N1CCc2[nH]cnc2[C@@H]1c1cc2c(C3CC3)cccn2n1` [Example 1854, (R)-(4-(4-cyclopropylpyrazolo[1,5-a]pyridin-2-yl)-1,4,6,7-tetrahydro-5H-imidazo[4,5-c]pyridin-5-yl)(5-(3-fluoropyridin-2-yl)-1,3,4-oxadiazol-2-yl)methanone] the value was greater than 5000 nM; for `O=C(c1nnc(-c2ncccc2F)o1)N1CCc2[nH]cnc2[C@H]1c1cc2c(C3CC3)cccn2n1` [Example 1855, (S)-(4-(4-cyclopropylpyrazolo[1,5-a]pyridin-2-yl)-1,4,6,7-tetrahydro-5H-imidazo[4,5-c]pyridin-5-yl)(5-(3-fluoropyridin-2-yl)-1,3,4-oxadiazol-2-yl)methanone], less than 500 nM; for `Cc1nnc(C(=O)N2CCc3[nH]cnc3[C@H]2c2cc3c(C(C)C)cccn3n2)o1` [Example 1858, (S)-(4-(4-isopropylpyrazolo[1,5-a]pyridin-2-yl)-1,4,6,7-tetrahydro-5H-imidazo[4,5-c]pyridin-5-yl)(5-methyl-1,3,4-oxadiazol-2-yl)methanone], less than 500 nM.
In the case of `Fc1ccc(-c2nnc(N3CCc4[nH]cnc4[C@H]3c3cc4ccccn4n3)o2)cc1` [Example 1861, (S)-2-(4-fluorophenyl)-5-(4-(pyrazolo[1,5-a]pyridin-2-yl)-1,4,6,7-tetrahydro-5H-imidazo[4,5-c]pyridin-5-yl)-1,3,4-oxadiazole], the AC50 was less than 500 nM.
`Fc1cccc(F)c1-c1nnc(N2CCc3[nH]cnc3[C@@H]2c2cc3c(C(F)F)cccn3n2)o1` [Example 1862, (R)-2-(4-(4-(difluoromethyl)pyrazolo[1,5-a]pyridin-2-yl)-1,4,6,7-tetrahydro-5H-imidazo[4,5-c]pyridin-5-yl)-5-(2,6-difluorophenyl)-1,3,4-oxadiazole]: the AC50 is greater than 5000 nM.
As to `Fc1cccc(F)c1-c1nnc(N2CCc3[nH]cnc3[C@H]2c2cc3c(C(F)F)cccn3n2)o1` [Example 1863, (S)-2-(4-(4-(difluoromethyl)pyrazolo[1,5-a]pyridin-2-yl)-1,4,6,7-tetrahydro-5H-imidazo[4,5-c]pyridin-5-yl)-5-(2,6-difluorophenyl)-1,3,4-oxadiazole], the AC50 is less than 500 nM.
With `Cn1cc(-c2nnc(C(=O)N3CCc4[nH]cnc4[C@H]3c3cc4c(Br)cccn4n3)o2)cn1` [Example 1868, (S)-(4-(4-bromopyrazolo[1,5-a]pyridin-2-yl)1,4,6,7-tetrahydro-5H-imidazo[4,5-c]pyridin-5-yl)(5-(1-methyl-1H-pyrazol-4-yl)-1,3,4-oxadiazol-2-yl)methanone], the concentration at half-maximal activity (AC50) was less than 500 nM.
For `Cn1cc(-c2nnc(C(=O)N3CCc4[nH]cnc4[C@@H]3c3cc4c(Br)cccn4n3)o2)cn1` [Example 1869, (R)-(4-(4-bromopyrazolo[1,5-a]pyridin-2-yl)-1,4,6,7-tetrahydro-5H-imidazo[4,5-c]pyridin-5-yl)(5-(1-methyl-1H-pyrazol-4-yl)-1,3,4-oxadiazol-2-yl)methanone] the value was greater than 5000 nM; for `FC(F)(F)c1cccn2nc([C@@H]3c4nc[nH]c4CCN3c3ccccn3)cc12` [Example 1870, (S)-5-(pyridin-2-yl)-4-(4-(trifluoromethyl)pyrazolo[1,5-a]pyridin-2-yl)-4,5,6,7-tetrahydro-1H-imidazo[4,5-c]pyridine], less than 500 nM.

The AC50 is the concentration at which the activity in the assay is half-maximal.
